The source of these data is patent US7410960B2, “Metal complexes and therapeutic uses thereof” (The University of Western Sydney, priority 2001, dated 2008).

One assay concerns KYSE 520 (esophagus). The experiment in a line: Growth inhibition IC50, KYSE 520 (esophagus) cell line. As to conditions: value (standard deviation). The class given is cell-based. Here is the method: (§1) When we compare the effect of changing the diamine from the non-chiral 1,2-diaminoethane (en) to the chiral ligands and 2S,3S-diaminobutane (2S,3S-bn) and 2R,3R-diaminobutane (2R,3R-bn) then the concentration inhibiting the exponential growth of cells to 50% is further reduction from 27.0 to 1.11 and 0.32 μM respectively.

Another assay relates to A-427 (lung). The experiment in a line: Growth inhibition IC50, A-427 (lung) cell line. It is filed as cell-based. The conditions noted are these: value (standard deviation). Here is the method:
as §1

A further assay deals with LCLC-103H (lung). The experiment in a line: Growth inhibition IC50, LCLC-103H (lung) cell line. It is filed as cell-based. As to conditions: value (standard deviation). Here is the method: as §1
Another assay concerns 5637 (bladder). Description: Growth inhibition IC50, 5637 (bladder) cell line. It is filed as cell-based. The conditions noted are these: value (standard deviation). As to the method: as §1
The subject of assay [1] is L1210 mouse leukaemia cells. Description: CC growth inhibition assay, L1210. It is filed as cell-based. The conditions noted are these: Test CC, 40 μM highest dose tested. The source says:
(§2) The data presented in Table3 is the results collected from the growth inhibition studies of selected compounds with the following cell lines: L1210 (mouse leukaemia cells), 2008 (human ovarian carcinoma cells), L1210/DDP and C13*5 (acquired cisplatin resistance) and SKOV-3 (intrinsic cisplatin resistance).

For assay [2], the system named is L1210/DDP cisplatin-resistant cells. Description: CC growth inhibition assay, L1210/DDP. The class given is cell-based, mouse. The conditions noted are these: Test CC, 40 μM highest dose tested.
From the text: as §2

The test system of assay [3] is C13*5 cisplatin-resistant cells. Description: Sulphorhodamine B (SRB) growth inhibition assay, C13. The class given is cell-based, human. The conditions noted are these: Test SRB, acquired cisplatin resistance.
From the text: as §2

In assay [4] the test system is 2008 human ovarian carcinoma cells. Description: Sulphorhodamine B (SRB) growth inhibition assay, 2008. It is filed as cell-based. The conditions noted are these: Test SRB.
From the text: as §2

Assay [5] concerns SKOV-3 cells (intrinsically resistant to cisplatin). Description: Sulphorhodamine B (SRB) growth inhibition assay, SKOV-3. It is filed as cell-based. The conditions noted are these: Test SRB, intrinsic cisplatin resistance.
From the text: as §2

Where [6] appears, read: first run, read-out: IC50 5637 (bladder).
The mark [7] stands for this setting: repeat run, read-out: IC50 5637 (bladder) Repeat.
Where [8] appears, read: listed as [Pt(R,R-bn)(phen)]Cl2.
[9] abbreviates: listed as [Pt(S,S-bn)(phen)]Cl2.
[10] abbreviates: listed as [Pt(R,R-dach)(phen)](ClO4)2.
Setting [11] is: listed as [Pt(S,S-dach)(phen)](ClO4)2.

Where “and” joins values, the source holds several entries; their conditions need not be identical. Equal values may be shown once. Read-outs that look alike come from different tables or passages of the source.

Turning to `N.N.[Cl][Pt][Cl]` [CDDP, cis-diamminedichloroplatinum (II), reference compound], the half-maximal inhibitory concentration (IC50) was 6.63 µM in the assay on KYSE 520 (esophagus); 4.46 µM in the assay on A-427 (lung); 1.44 µM with LCLC-103H (lung); 0.88 µM with 5637 (bladder) (setting [6]); 0.43 µM with 5637 (bladder) (setting [7]).
With `CC(N)C(C)N.[Cl-].[Cl-].[Pt+2].c1cnc2c(c1)ccc1cccnc12` [[Pt(2R,3R-bn)(phen)]Cl2] [(2R,3R-butanediamine)(1,10-phenanthroline)platinum(II) cation], the IC50 with KYSE 520 (esophagus) came to 0.67 µM; in the assay on A-427 (lung), 0.54 µM; in the assay on LCLC-103H (lung), 0.78 µM; with 5637 (bladder) (setting [6]) it was 0.32 µM; in the assay on 5637 (bladder) (setting [7]), 0.43 µM; in [1] (setting [8]), 1.5 µM. Besides, the 50% inhibitory concentration (IC50) in [2] (setting [8]) is 2.5 µM and 1.9 µM; in assay [3] (setting [8]), 5.2 µM and 9 µM and 7.4 µM.
Consider `CC(N)C(C)N.[Cl-].[Cl-].[Pt+2].c1cnc2c(c1)ccc1cccnc12` [[Pt(2S,3S-bn)(phen)]Cl2] [(2S,3S-butanediamine)(1,10-phenanthroline)platinum(II) cation], for which the 50% inhibitory concentration (IC50) in the assay on KYSE 520 (esophagus) was 1.87 µM; with A-427 (lung), 1.35 µM; in the assay on LCLC-103H (lung), 2.39 µM; in the assay on 5637 (bladder) (setting [6]), 1.11 µM; in the assay on 5637 (bladder) (setting [7]) it was 0.98 µM; in [1] (setting [9]), 3.8 µM and 3 µM. For the same compound, the 50% inhibitory concentration (IC50) in [2] (setting [9]) is 5.3 µM and 8 µM; in assay [4] (setting [9]), 7.2 µM and 11 µM; in assay [3] (setting [9]), 26 µM and 22 µM and 28 µM; in assay [5] (setting [9]) it was 9.8 µM and 9.2 µM and 12 µM.
As to `NCCN.[Cl-].[Cl-].[Pt+2].c1cnc2c(c1)c1nccnc1c1cccnc12` [[Pt(en)(dpq)]Cl2], the concentration for half-maximal inhibition (IC50) with KYSE 520 (esophagus) is 19.4 µM; with A-427 (lung), 16.4 µM; in the assay on LCLC-103H (lung) it was 23.6 µM; in the assay on 5637 (bladder) (setting [6]) it was 16.7 µM.
On to `[Cl-].[Cl-].c1cc2ccc3ccc[n+]4c3c2[n+](c1)[Pt-2]41[NH2+]CC[NH2+]1` [[Pt(en)(phen)]Cl2, reference compound], for which the IC50 came to 49.1 µM in the assay with KYSE 520 (esophagus); 24.1 µM with A-427 (lung); 41.2 µM with LCLC-103H (lung); 27 µM in the assay on 5637 (bladder) (setting [6]); 23.7 µM with 5637 (bladder) (setting [7]).
Taken in the same sequence, the figures for `CC(N)C(C)N.[Cl-].[Cl-].[Pt+2].c1cnc2c(c1)ccc1cccnc12` [[Pt(meso-2,3-bn)(phen)]Cl2] [(2S,3R-butanediamine)(1,10-phenanthroline)platinum(II) cation] were 1.09 µM, 0.92 µM, 1.07 µM, 0.61 µM and 0.72 µM.
As to `N[C@@H]1CCCC[C@H]1N.[O-][Cl+3]([O-])([O-])[O-].[O-][Cl+3]([O-])([O-])[O-].[Pt+2].c1cnc2c(c1)ccc1cccnc12` [[Pt(phen)(R,R-dach)](ClO4)2, (1R,2R-cyclohexanediamine)(1,10-phenanthroline)platinum(II) cation], the IC50 in the assay with 5637 (bladder) (setting [7]) was 0.54 µM; in assay [1] (setting [10]), 1.4 µM and 1.6 µM; in [2] (setting [10]), 4.3 µM and 4.5 µM; in [4] (setting [10]), 3.3 µM and 3.1 µM; in assay [3] (setting [10]) it was 5.1 µM and 9.2 µM; in [5] (setting [10]) it was 3.3 µM and 3.6 µM.
Regarding `N[C@H]1CCCC[C@@H]1N.[O-][Cl+3]([O-])([O-])[O-].[O-][Cl+3]([O-])([O-])[O-].[Pt+2].c1cnc2c(c1)ccc1cccnc12` [[Pt(phen)(S,S-dach)](ClO4)2, (1S,2S-cyclohexanediamine)(1,10-phenanthroline)platinum(II) cation], the half-maximal inhibitory concentration (IC50) in the assay on 5637 (bladder) (setting [7]) is 0.15 µM; in assay [1], 0.13 µM; in assay [2], 0.28 ± 0.09 µM; in assay [4] (setting [11]), 0.37 µM and 0.45 µM; in [3] (setting [11]) it was 0.56 µM and 0.88 µM; in assay [5] (setting [11]) it was 0.31 µM and 0.42 µM.
Regarding “(N,N′-dimethyl-1R,2R-cyclohexanediamine)(1,10-phenanthroline)platinum(II) cation [[Pt(phen)(Me2-R,R-dach)](ClO4)2]”, the 50% inhibitory concentration (IC50) with 5637 (bladder) (setting [7]) turned out to be 23.6 µM.
Turning to “(N,N′-dimethyl-1S,2S-cyclohexanediamine)(1,10-phenanthroline)platinum(II) cation [[Ptphen)(Me2-S,S-dach](ClO4)2]”, the IC50 was determined as 55.6 µM with 5637 (bladder) (setting [7]) and 12 µM in [1] (listed as [Pt(Me2—S,S-dach)(phen)](ClO4)2).

The term IC50 denotes the concentration that gives 50% inhibition.
